Assay results published in PubChem BioAssay (NCI).
Values joined by “and” are separate entries in the source; they are usually repeats but may differ in a detail not shown here. Equal values may be shown once.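 Exposure lasted 48 hours, with cells grown in 96-well plates and compounds tested at five concentrations. The concentration for 50% growth inhibition is given as GI50. At the TGI there is no net growth.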

Tests used:
Assay in all cases: growth of human tumour cells (NCI), 48 h
CAKI-1 renal = tested on: CAKI-1 renal
HCC-2998 colon = tested on: HCC-2998 colon
M14 melanoma = tested on: M14 melanoma
SF-539 CNS = tested on: SF-539 CNS
SN12C renal = tested on: SN12C renal
HCT-15 colon = tested on: HCT-15 colon
SK-MEL-28 melanoma = tested on: SK-MEL-28 melanoma
OVCAR-5 ovarian = tested on: OVCAR-5 ovarian
HL-60(TB) leukemia = tested on: HL-60(TB) leukemia
HOP-92 NSCLC = tested on: HOP-92 NSCLC

C=C1C(=O)O[C@H]2[C@H]1CC/C(COC(=O)C(=O)c1cn(Cc3ccccc3)c3ccccc13)=C\CC[C@@]1(C)O[C@@H]21
GI50 (CAKI-1 renal): 2.96 µM | TGI (CAKI-1 renal): 34.5 µM | GI50 (HCC-2998 colon): 1.91 µM | TGI (HCC-2998 colon): 4.26 µM | GI50 (M14 melanoma): 1.78 µM | TGI (M14 melanoma): 4.13 µM | GI50 (SF-539 CNS): 1.9 µM | TGI (SF-539 CNS): 3.83 µM | GI50 (SN12C renal): 2.3 µM | TGI (SN12C renal): 6.03 µM | GI50 (HCT-15 colon): 1.45 µM | TGI (HCT-15 colon): 3.69 µM | GI50 (SK-MEL-28 melanoma): 2.08 µM | TGI (SK-MEL-28 melanoma): 4.98 µM | GI50 (OVCAR-5 ovarian): 2.56 µM | TGI (OVCAR-5 ovarian): 6.82 µM | GI50 (HL-60(TB) leukemia): 2.26 µM | TGI (HL-60(TB) leukemia): 7 µM | GI50 (HOP-92 NSCLC): 1.88 µM | TGI (HOP-92 NSCLC): 4.38 µM

CCOc1ccccc1NC(=O)CC(C(=O)OC)C(=O)C(=O)OC (stereo not given)
TGI (CAKI-1 renal): > 100 µM | TGI (HCC-2998 colon): > 100 µM | TGI (M14 melanoma): > 100 µM | TGI (SF-539 CNS): > 100 µM | TGI (SN12C renal): > 100 µM | TGI (HCT-15 colon): > 100 µM | TGI (SK-MEL-28 melanoma): > 100 µM | TGI (OVCAR-5 ovarian): > 100 µM | TGI (HL-60(TB) leukemia): > 100 µM | TGI (HOP-92 NSCLC): > 100 µM

COc1cc2c(c(OC)c1OC)-c1ccc(OC)c(=O)cc1[C@@H](NC(=O)c1ccccc1)CC2
GI50 (CAKI-1 renal): 0.029 µM | TGI (CAKI-1 renal): 30 µM and 61.2 µM | GI50 (HCC-2998 colon): < 0.003 µM | TGI (M14 melanoma): 8.46 µM | GI50 (SF-539 CNS): < 0.003 µM | TGI (SF-539 CNS): < 0.003 µM and 0.017 µM | GI50 (SN12C renal): < 0.003 µM | TGI (SN12C renal): 30 µM and > 81.5 µM | GI50 (HCT-15 colon): 0.0444 µM | GI50 (SK-MEL-28 melanoma): < 0.003 µM | TGI (SK-MEL-28 melanoma): 30 µM and > 100 µM | GI50 (OVCAR-5 ovarian): < 0.003 µM | TGI (OVCAR-5 ovarian): 30 µM and > 94.1 µM | TGI (HL-60(TB) leukemia): < 0.013 µM | TGI (HOP-92 NSCLC): 6.68 µM

O=C(NC1=CC(=O)c2ccccc2C1=O)c1ccccc1
GI50 (CAKI-1 renal): 1.74 µM | TGI (CAKI-1 renal): 3.54 µM | GI50 (HCC-2998 colon): 1.27 µM | TGI (HCC-2998 colon): 14.3 µM | GI50 (M14 melanoma): 0.874 µM | TGI (M14 melanoma): 4.4 µM | GI50 (SF-539 CNS): 0.284 µM | TGI (SF-539 CNS): 0.913 µM | GI50 (SN12C renal): 1.49 µM | TGI (SN12C renal): 6.01 µM | GI50 (HCT-15 colon): 0.549 µM | TGI (HCT-15 colon): 5.6 µM | GI50 (SK-MEL-28 melanoma): 0.841 µM | TGI (SK-MEL-28 melanoma): 15.3 µM | GI50 (OVCAR-5 ovarian): 1.18 µM | TGI (OVCAR-5 ovarian): 15.5 µM | GI50 (HL-60(TB) leukemia): 0.639 µM | TGI (HL-60(TB) leukemia): 2.53 µM | GI50 (HOP-92 NSCLC): 0.572 µM | TGI (HOP-92 NSCLC): 2.6 µM

COC1(OC)C2(Cl)C(Cl)=C(Cl)C1(Cl)C1C=CC=CC12 (stereo not given)
TGI (CAKI-1 renal): > 100 µM | TGI (HCC-2998 colon): > 100 µM | TGI (M14 melanoma): > 100 µM | TGI (SF-539 CNS): > 100 µM | TGI (SN12C renal): > 100 µM | TGI (HCT-15 colon): > 100 µM | TGI (SK-MEL-28 melanoma): > 100 µM | TGI (OVCAR-5 ovarian): > 100 µM | TGI (HL-60(TB) leukemia): > 100 µM | TGI (HOP-92 NSCLC): > 100 µM

COc1ccc(C(=O)C(C(=O)CCC(=O)Nc2cccc(Cl)c2)c2ccc(OC)cc2)cc1 (stereo not given)
TGI (CAKI-1 renal): > 100 µM | TGI (HCC-2998 colon): > 100 µM | TGI (M14 melanoma): > 100 µM | TGI (SF-539 CNS): > 100 µM | TGI (SN12C renal): > 100 µM | TGI (HCT-15 colon): > 100 µM | TGI (SK-MEL-28 melanoma): > 100 µM | TGI (OVCAR-5 ovarian): > 100 µM | TGI (HL-60(TB) leukemia): > 100 µM | TGI (HOP-92 NSCLC): > 100 µM

COC(=O)[C@@H](C)CNS(=O)(=O)N(c1cc(C(F)(F)F)cc(C(F)(F)F)c1)C1CCN(Cc2ccc(F)cc2)CC1
GI50 (CAKI-1 renal): 7.23 µM | TGI (CAKI-1 renal): 22.3 µM | GI50 (HCC-2998 colon): 3.01 µM | TGI (HCC-2998 colon): 11.7 µM | GI50 (M14 melanoma): 3.75 µM | TGI (M14 melanoma): 15 µM | GI50 (SF-539 CNS): 13.2 µM | TGI (SF-539 CNS): 26.4 µM | GI50 (SN12C renal): 4.69 µM | TGI (SN12C renal): 18.5 µM | GI50 (HCT-15 colon): 4.42 µM | TGI (HCT-15 colon): 17.9 µM | GI50 (SK-MEL-28 melanoma): 14 µM | TGI (SK-MEL-28 melanoma): 27.8 µM | GI50 (OVCAR-5 ovarian): 15.8 µM | TGI (OVCAR-5 ovarian): 29.7 µM | GI50 (HL-60(TB) leukemia): 4.69 µM | TGI (HL-60(TB) leukemia): 18.2 µM | GI50 (HOP-92 NSCLC): 5.76 µM | TGI (HOP-92 NSCLC): 20 µM

CC1(C)C(=O)N(CCCCCCN2C(=O)C(C)(C)c3ccccc32)c2ccccc21
TGI (CAKI-1 renal): > 100 µM | TGI (HCC-2998 colon): > 100 µM | TGI (M14 melanoma): 87.4 µM | TGI (SF-539 CNS): > 100 µM | TGI (SN12C renal): > 100 µM | TGI (HCT-15 colon): > 100 µM | TGI (SK-MEL-28 melanoma): > 100 µM | TGI (OVCAR-5 ovarian): > 100 µM | TGI (HL-60(TB) leukemia): 19.7 µM | TGI (HOP-92 NSCLC): > 100 µM

NS(=O)(=O)c1ccc(NC2(C(=O)O)CCCC2)cc1
TGI (CAKI-1 renal): > 100 µM | TGI (HCC-2998 colon): > 100 µM | TGI (M14 melanoma): > 100 µM | TGI (SF-539 CNS): > 100 µM | TGI (SN12C renal): > 100 µM | TGI (HCT-15 colon): > 100 µM | TGI (SK-MEL-28 melanoma): > 100 µM | TGI (OVCAR-5 ovarian): > 100 µM | TGI (HL-60(TB) leukemia): > 100 µM | TGI (HOP-92 NSCLC): > 100 µM

O=C(N/N=C/c1ccc(Cl)cc1)c1ccc(C(F)(F)F)nc1Nc1cccc(C(F)(F)F)c1
GI50 (CAKI-1 renal): 2.37 µM | TGI (CAKI-1 renal): 9.88 µM | GI50 (HCC-2998 colon): 4.3 µM | TGI (HCC-2998 colon): 17.3 µM | GI50 (M14 melanoma): 2.54 µM | TGI (M14 melanoma): 10 µM | GI50 (SF-539 CNS): 2.11 µM | TGI (SF-539 CNS): 6.69 µM | GI50 (SN12C renal): 1.78 µM | TGI (SN12C renal): 10.6 µM | GI50 (HCT-15 colon): 0.855 µM | TGI (HCT-15 colon): 12.2 µM | GI50 (SK-MEL-28 melanoma): 2.54 µM | TGI (SK-MEL-28 melanoma): 10.3 µM | GI50 (OVCAR-5 ovarian): 3.2 µM | TGI (OVCAR-5 ovarian): 13.7 µM | GI50 (HL-60(TB) leukemia): 1.45 µM | TGI (HL-60(TB) leukemia): 5.69 µM | GI50 (HOP-92 NSCLC): 0.347 µM | TGI (HOP-92 NSCLC): 2.71 µM

c1cc(CNC23CC4CC(CC(C4)C2)C3)cc(C[N+](Cc2cccc(CNC34CC5CC(CC(C5)C3)C4)c2)(Cc2cccc(CNC34CC5CC(CC(C5)C3)C4)c2)Cc2cccc(CNC34CC5CC(CC(C5)C3)C4)c2)c1 (stereo not given)
GI50 (CAKI-1 renal): 5.36 µM | TGI (CAKI-1 renal): 19.6 µM | GI50 (HCC-2998 colon): 5.11 µM | TGI (HCC-2998 colon): 22.2 µM | GI50 (M14 melanoma): 3.36 µM | TGI (M14 melanoma): 8.69 µM | GI50 (SF-539 CNS): 4.23 µM | TGI (SF-539 CNS): 10.3 µM | GI50 (SN12C renal): 5.9 µM | TGI (SN12C renal): 18.5 µM | GI50 (HCT-15 colon): 4.59 µM | TGI (HCT-15 colon): 16.4 µM | GI50 (SK-MEL-28 melanoma): 6.94 µM | TGI (SK-MEL-28 melanoma): 33.1 µM | GI50 (OVCAR-5 ovarian): 4.09 µM | TGI (OVCAR-5 ovarian): 11.5 µM | GI50 (HL-60(TB) leukemia): 3.64 µM | TGI (HL-60(TB) leukemia): 11.3 µM | GI50 (HOP-92 NSCLC): 4.74 µM | TGI (HOP-92 NSCLC): 12.8 µM
